# What was measured:
# [1] = system: souches de S. aureus issues de prélèvements de plaies du pied infectées chez des patients diabétiques; assay: Antibiotic susceptibility test (MIC, 96-well microplate, OD 600 nm) in Mueller-Hinton medium (MH); assay type: cell-based; design: key to Classification (S) ou (R) en MH: S (sensible); R (résistante); settings: for MIC: Staphylococcus aureus, read-out: CMI en milieu MH
# From the text: (§1) • La Figure 1 représente des courbes de croissance de bactéries en fonction du milieu de culture. Sur cette figure, les ordonnées correspondent au logarithme d'unités formant colonie par millilitre de milieu de culture (Log UFC/ml) et les abscisses, au temps en heure (H). La Figure 1A représente les courbes correspondant à la croissance de 2 souches de S. aureus, Newman (gauche) et SAC1 (droite), dans le milieu BHI (courbe avec indicateurs ronds) et un exemple de milieu selon l'invention (MP) (courbe avec indicateurs carrés). La Figure 1B représente les courbes correspondant à la croissance de 2 souches de P. aeruginosa, PAO1 (gauche) et PAC1 (droite), dans le milieu BHI (courbe avec indicateurs ronds) et un exemple de milieu selon l'invention (MP) (courbe avec indicateurs carrés). La Figure 1C représente les courbes correspondant à la croissance de 2 souches cliniques S. aureus SAC1 et P. aeruginosa PAC1, en coculture dans le milieu BHI (P. aeruginosa BHI ou S. aureus BHI) et un exemple de milieu selon l'invention (MP) (P. aeruginosa MP ou S. aureus MP). La mesure de différence significative, réalisée par le test de Student, entre les valeurs d'UFC/mL est exprimée, soit par (***) qui correspond à une p-value <0,001, soit par (**) qui correspond à une p-value <0,01. • La Figure 2 représente les résultats obtenus d'une détermination de l'adhésion et de la formation de biofilm par dénombrement à 24h. Sur cette figure, les ordonnées correspondent au logarithme d'unités formant colonie par millilitre de milieu de culture (Log UFC/ml). La Figure 2A représente un histogramme ou diagramme en bâton du nombre de bactéries dénombrées suite à des cultures séparées de souche S. aureus Newman (Newman), S. aureus SAC1 (SAC 1), P. aeruginosa PAO1 (PAO1) ou P. aeruginosa PAC1 (PAC1), pendant 24H dans un milieu BHI (BHI) (bâtons noirs) ou dans un exemple de milieu selon l'invention (MP) (bâtons gris). La Figure 2B montre sous forme d'histogramme le nombre de bactéries dénombrées suite à des co-cultures des souches de référence S. aureus Newman et P. aeruginosa PAO1 (PAO1/Newman), ainsi que du couple de souches cliniques S. aureus SAC1 et P. aeruginosa PAC1 (PAC 1/SAC1), pendant 24H dans un milieu BHI (BHI) (bâtons noirs) ou dans un exemple de milieu selon l'invention (MP) (bâtons gris). La mesure de différence significative, réalisée par le test de Student, entre les valeurs d'UFC est exprimée, soit par (***) qui correspond à une p-value <0,001, soit par (**) qui correspond à une p-value <0,01. • La Figure 3 représente les résultats obtenus d'une détermination de sensibilité à des antibiotiques de souches cliniques de S. aureus issues d'infections de plaies du pied chez le diabétique. Les données cliniques, anonymisées, nécessaires à l'interprétation des résultats, consistaient en l'antibiothérapie donnée au patient, ainsi que la qualification par les médecins hospitaliers d'un succès ou échec thérapeutique. La définition de succès ou échec thérapeutique est définie comme suit. Le patient commence et suit l'antibiothérapie prescrite et un deuxième prélèvement microbiologique est effectué lors du dernier jour de traitement de la 1ère antibiothérapie (± 2 jours). Ce prélèvement est utilisé pour déterminer la présence/absence du pathogène ciblé par l'antibiothérapie, S. aureus. Si ce prélèvement a montré la persistance d'un S. aureus, l'antibiothérapie est en échec. A l'inverse, en cas d'absence de S. aureus, l'antibiothérapie est associée à un succès thérapeutique. Les antibiogrammes ont été réalisés classiquement sur une durée de 18h ± 2h en accord avec les recommandations de l'EUCAST. Une gamme de l'antibiotique à tester a été réalisée. • La Figure 3A montre sous forme d'histogramme les résultats des CMI déduites d'antibiogrammes sur 11 souches testées en présence d'amoxicilline / clavulanate de potassium (commercialisé par exemple sous le nom d'Augmentin (marque déposée)).
# [2] = system: souches de S. aureus issues de prélèvements de plaies du pied infectées chez des patients diabétiques; assay: Antibiotic susceptibility test (MIC, 96-well microplate, OD 600 nm) in wound medium of the invention (MP); assay type: cell-based; settings: for MIC: Staphylococcus aureus, read-out: CMI en milieu plaie MP
# From the text: as §1
molecule,measurement,setting,value
CCC[C@@H]1C[C@@H](C(=O)N[C@@H]([C@H]2O[C@H](SC)[C@H](O)[C@@H](O)[C@H]2O)[C@H](C)Cl)N(C)C1 [clindamycine],MIC,[1]; souche C01P009,0.25 µg/mL
same,MIC,[1]; souche C01P010,0.25 µg/mL
same,MIC,[1]; souche C03P003,0.25 µg/mL
same,MIC,[1]; souche C03P004,0.25 µg/mL
same,MIC,[1]; souche C03P005,0.25 µg/mL
same,MIC,[1]; souche C03P009,0.5 µg/mL
same,Classification (S) ou (R) en MH,[1]; souche C01P009,(S)
same,Classification (S) ou (R) en MH,[1]; souche C01P010,(S)
same,Classification (S) ou (R) en MH,[1]; souche C03P003,(S)
same,Classification (S) ou (R) en MH,[1]; souche C03P004,(S)
same,Classification (S) ou (R) en MH,[1]; souche C03P005,(S)
same,Classification (S) ou (R) en MH,[1]; souche C03P009,(S)
same,MIC,[2]; souche C01P009,0.25 µg/mL
same,MIC,[2]; souche C01P010,2 µg/mL
same,MIC,[2]; souche C03P003,0.25 µg/mL
same,MIC,[2]; souche C03P004,0.25 µg/mL
same,MIC,[2]; souche C03P005,1 µg/mL
same,MIC,[2]; souche C03P009,0.5 µg/mL
same,Classification (S) ou (R) en MP,[2]; souche C01P009,"(S) (valeur de CMI mesurée dans un milieu plaie, exemple de milieu selon l'invention (MP) inférieure ou égale au seuil déterminé et peuvent être classifiées comme sensibles (noté S dans le tableau 5C))"
same,Classification (S) ou (R) en MP,[2]; souche C01P010,"(R) (valeur de CMI mesurée dans un milieu plaie, exemple de milieu selon l'invention (MP), supérieure au seuil et peuvent être classifiées comme résistantes (noté R dans le tableau 5C))"
same,Classification (S) ou (R) en MP,[2]; souche C03P003,"(S) (valeur de CMI mesurée dans un milieu plaie, exemple de milieu selon l'invention (MP) inférieure ou égale au seuil déterminé et peuvent être classifiées comme sensibles (noté S dans le tableau 5C))"
same,Classification (S) ou (R) en MP,[2]; souche C03P004,"(S) (valeur de CMI mesurée dans un milieu plaie, exemple de milieu selon l'invention (MP) inférieure ou égale au seuil déterminé et peuvent être classifiées comme sensibles (noté S dans le tableau 5C))"
same,Classification (S) ou (R) en MP,[2]; souche C03P005,"(R) (valeur de CMI mesurée dans un milieu plaie, exemple de milieu selon l'invention (MP), supérieure au seuil et peuvent être classifiées comme résistantes (noté R dans le tableau 5C))"
same,Classification (S) ou (R) en MP,[2]; souche C03P009,"(S) (valeur de CMI mesurée dans un milieu plaie, exemple de milieu selon l'invention (MP) inférieure ou égale au seuil déterminé et peuvent être classifiées comme sensibles (noté S dans le tableau 5C))"
amoxicilline / clavulanate de potassium [amoxicilline/clavulanate de potassium],CMI en milieu MH,[1]; souche C01P012,"0,25 mg/L / µg/L"
same,Classification (S) ou (R) en MH,[1]; souche C01P012,(S)
same,CMI en milieu MH,[1]; souche C03P001,"0,25 mg/L / µg/L"
same,Classification (S) ou (R) en MH,[1]; souche C03P001,(S)
same,CMI en milieu MH,[1]; souche C03P008,"0,5 mg/L / µg/L"
same,Classification (S) ou (R) en MH,[1]; souche C03P008,(S)
same,CMI en milieu MH,[1]; souche C04P003,"0,25 mg/L / µg/L"
same,Classification (S) ou (R) en MH,[1]; souche C04P003,(S)
same,CMI en milieu MH,[1]; souche C04P005f,"0,5 mg/L / µg/L"
same,Classification (S) ou (R) en MH,[1]; souche C04P005f,(S)
same,CMI en milieu MH,[1]; souche C04P005i,"0,5 mg/L / µg/L"
same,Classification (S) ou (R) en MH,[1]; souche C04P005i,(S)
same,CMI en milieu MH,[1]; souche C04P007,"0,25 mg/L / µg/L"
same,Classification (S) ou (R) en MH,[1]; souche C04P007,(S)
same,CMI en milieu MH,[1]; souche C06P001f,"0,25 mg/L / µg/L"
same,Classification (S) ou (R) en MH,[1]; souche C06P001f,(S)
same,CMI en milieu MH,[1]; souche C06P001 i,"0,25 mg/L / µg/L"
same,Classification (S) ou (R) en MH,[1]; souche C06P001 i,(S)
same,CMI en milieu MH,[1]; souche C06P003f,"0,25 mg/L / µg/L"
same,Classification (S) ou (R) en MH,[1]; souche C06P003f,(S)
same,CMI en milieu MH,[1]; souche C06P003i,"0,25 mg/L / µg/L"
same,Classification (S) ou (R) en MH,[1]; souche C06P003i,(S)
same,CMI en milieu plaie MP,[2]; souche C01P012,"0,25 mg/L / µg/L"
same,Classification (S) ou (R) en MP,[2]; souche C01P012,"(S) (valeur de CMI mesurés dans l'exemple de milieu selon l'invention (MP), inférieure ou égale au seuil et ont été et peuvent être classifiées comme sensibles (noté S dans le tableau 5A))"
same,CMI en milieu plaie MP,[2]; souche C03P001,"0,5 mg/L / µg/L"
same,Classification (S) ou (R) en MP,[2]; souche C03P001,"(S) (valeur de CMI mesurés dans l'exemple de milieu selon l'invention (MP), inférieure ou égale au seuil et ont été et peuvent être classifiées comme sensibles (noté S dans le tableau 5A))"
same,CMI en milieu plaie MP,[2]; souche C03P008,1 mg/L / µg/L
same,Classification (S) ou (R) en MP,[2]; souche C03P008,(R) (valeur de CMI mesurée dans l'exemple de milieu selon l'invention (MP) supérieure au seuil et peuvent être classifiées comme résistantes (noté R dans le tableau 5A))
same,CMI en milieu plaie MP,[2]; souche C04P003,"0,25 mg/L / µg/L"
same,Classification (S) ou (R) en MP,[2]; souche C04P003,"(S) (valeur de CMI mesurés dans l'exemple de milieu selon l'invention (MP), inférieure ou égale au seuil et ont été et peuvent être classifiées comme sensibles (noté S dans le tableau 5A))"
same,CMI en milieu plaie MP,[2]; souche C04P005f,"0,5 mg/L / µg/L"
same,Classification (S) ou (R) en MP,[2]; souche C04P005f,"(S) (valeur de CMI mesurés dans l'exemple de milieu selon l'invention (MP), inférieure ou égale au seuil et ont été et peuvent être classifiées comme sensibles (noté S dans le tableau 5A))"
same,CMI en milieu plaie MP,[2]; souche C04P005i,"0,5 mg/L / µg/L"
same,Classification (S) ou (R) en MP,[2]; souche C04P005i,"(S) (valeur de CMI mesurés dans l'exemple de milieu selon l'invention (MP), inférieure ou égale au seuil et ont été et peuvent être classifiées comme sensibles (noté S dans le tableau 5A))"
same,CMI en milieu plaie MP,[2]; souche C04P007,1 mg/L / µg/L
same,Classification (S) ou (R) en MP,[2]; souche C04P007,(R) (valeur de CMI mesurée dans l'exemple de milieu selon l'invention (MP) supérieure au seuil et peuvent être classifiées comme résistantes (noté R dans le tableau 5A))
same,CMI en milieu plaie MP,[2]; souche C06P001f,2 mg/L / µg/L
same,Classification (S) ou (R) en MP,[2]; souche C06P001f,(R) (valeur de CMI mesurée dans l'exemple de milieu selon l'invention (MP) supérieure au seuil et peuvent être classifiées comme résistantes (noté R dans le tableau 5A))
same,CMI en milieu plaie MP,[2]; souche C06P001 i,4 mg/L / µg/L
same,Classification (S) ou (R) en MP,[2]; souche C06P001 i,(R) (valeur de CMI mesurée dans l'exemple de milieu selon l'invention (MP) supérieure au seuil et peuvent être classifiées comme résistantes (noté R dans le tableau 5A))
same,CMI en milieu plaie MP,[2]; souche C06P003f,1 mg/L / µg/L
same,Classification (S) ou (R) en MP,[2]; souche C06P003f,(R) (valeur de CMI mesurée dans l'exemple de milieu selon l'invention (MP) supérieure au seuil et peuvent être classifiées comme résistantes (noté R dans le tableau 5A))
same,CMI en milieu plaie MP,[2]; souche C06P003i,2 mg/L / µg/L
same,Classification (S) ou (R) en MP,[2]; souche C06P003i,(R) (valeur de CMI mesurée dans l'exemple de milieu selon l'invention (MP) supérieure au seuil et peuvent être classifiées comme résistantes (noté R dans le tableau 5A))
